Experimental data as given in patent publication US12279618B2, “Use of dihydroporphin derived from chlorophyll as plant growth regulator” (Anqing Better Bioengineering Co., Ltd, priority 2019, dated 2025).

What was measured:
Format in all cases: in vivo
corn seeds = assay: Corn seed germination experiment (seed soaking method, NYT 2061.1-2011)
Source text: Test Method: Ministerial Standard NYT 2061.1-2011, Seed Soaking Method
Test samples: crude chlorin, and dihydroporphin monomers including chlorin fG, chlorin e6, pheophorbide, pyropheophorbide, chlorin e4, purpurin-7, purpurin-18, chlorin p6, 15-formyl rhodochlorin, 15-oxymethyl rhodochlorin, 15-oxymethyl rhodochlorin lactone A, 15-hydroxymethyl rhodochlorin, and 15-hydroxymethyl rhodochlorin lactone B, and pure water and iron chlorin e6 (China Pesticide Registration Certificate Number: PD20190031) were used as blank and positive control.
10 mg of each sample was weighed and put into a 10 ml volumetric flask, dissolved with DMSO, and diluted to volume after being dissolved completely. 1 ml of each diluted monomer solution was put into a 50-1000 ml volumetric flask, added with water, blended and diluted to volume so as to prepare a solution with a concentration of 2 ppm, 0.2 ppm, or 0.02 ppm.
The method was substantially the same as that in Example 2, except that the test samples were monomer chlorin e6 and control monomer chlorin e6 iron (III), both at a concentration of 0.02 ppm and the test seeds were corn, soybean, rice and wheat seeds. The preparation method of the control monomer was conducted by referring to CN102273467B.

soybean seeds [1] = assay: Soybean seed germination experiment (seed soaking method)
Protocol: (§1) Test Method: Ministerial Standard NYT 2061.1-2011, Seed Soaking Method 10 mg of each sample was weighed and put into a 10 ml volumetric flask, dissolved with DMSO, and diluted to volume after being dissolved completely. 1 ml of each diluted monomer solution was put into a 50-1000 ml volumetric flask, added with water, blended and diluted to volume so as to prepare a solution with a concentration of 2 ppm, 0.2 ppm, or 0.02 ppm. The method was substantially the same as that in Example 1 except that soybean seeds were used as the crop seeds, and the samples were crude chlorin, pyropheophorbide, chlorin f, chlorin e6, chlorin e4, purpurin-18, 15-oxymethyl rhodochlorin lactone, and 15-hydroxymethyl rhodochlorin lactone. The method was substantially the same as that in Example 2, except that the test samples were monomer chlorin e6 and control monomer chlorin e6 iron (III), both at a concentration of 0.02 ppm and the test seeds were corn, soybean, rice and wheat seeds. The preparation method of the control monomer was conducted by referring to CN102273467B.

rice seeds = assay: Rice seed germination experiment (seed soaking method)
Protocol: as §1, with “Example 2” for “Example 1”, “that rice” for “that soybean”, “crop seeds.” for “crop seeds, and the samples were crude chlorin, pyropheophorbide, chlorin f, chlorin e6, chlorin e4, purpurin-18, 15-oxymethyl rhodochlorin lactone, and 15-hydroxymethyl rhodochlorin lactone.”

wheat seeds = assay: Wheat seed germination experiment (seed soaking method)
Protocol: as §1, with “Example 2” for “Example 1”, “that wheat” for “that soybean”, “crop seeds.” for “crop seeds, and the samples were crude chlorin, pyropheophorbide, chlorin f, chlorin e6, chlorin e4, purpurin-18, 15-oxymethyl rhodochlorin lactone, and 15-hydroxymethyl rhodochlorin lactone.”

soybean seeds [2] = assay: Soybean seed germination experiment (seed soaking method); settings: 0.2 ppm sample solution
[3] = 0.02 ppm sample solution, seed soaking
[4] = 0.2 ppm sample solution, seed soaking
[5] = 2 ppm sample solution, seed soaking
[6] = soybean seeds, 0.02 ppm sample solution
[7] = soybean seeds, 0.2 ppm sample solution
[8] = soybean seeds, 2 ppm sample solution
[9] = comparison of the monomers, 0.02 ppm

Row | Compound | Germination rate % (corn seeds; [3]) [%] | Germination rate % (corn seeds; [4]) [%] | Germination rate % (corn seeds; [5]) [%] | Germination rate % (soybean seeds [1]; [6]) [%] | Germination rate % (soybean seeds [1]; [7]) [%] | Germination rate % (soybean seeds [1]; [8]) [%] | Germination rate % (rice seeds; 0.02 ppm sample solution) [%] | Germination rate % (rice seeds; 0.2 ppm sample solution) [%] | Germination rate % (rice seeds; 2 ppm sample solution) [%] | Germination rate % (wheat seeds; 0.02 ppm sample solution) [%] | Germination rate % (wheat seeds; 0.2 ppm sample solution) [%] | Germination rate % (wheat seeds; 2 ppm sample solution) [%] | other results
1 | C=Cc1c(C)c2cc3nc(c(C(=O)O)c4[nH]c(cc5nc(cc1[nH]2)C(C)=C5CC)c(C)c4C(=O)O)[C@@H](CCC(=O)O)[C@@H]3C [Chlorin p6, chlorin p6] | 49 | 55 | 52 | – | – | – | – | – | – | – | – | – | –
2 | C=Cc1c(C)c2cc3nc(c4c5[nH]c(cc6nc(cc1[nH]2)C(C)=C6CC)c(C)c5C(=O)[C@@H]4C(=O)OC)[C@@H](CCC(=O)O)[C@@H]3C [Pheophorbide, pheophorbide] | 57 | 55 | 56 | – | – | – | – | – | – | – | – | – | –
3 | C=Cc1c(C)c2cc3nc(c4c5[nH]c(cc6nc(cc1[nH]2)C(C)=C6CC)c(C)c5C(=O)OC4=O)[C@@H](CCC(=O)O)[C@@H]3C [Purpurin-18, purpurin-18] | 55 | 58 | 53 | 66 | 65 | 67 | 77 | 78 | 76 | 97 | 97 | 95 | –
4 | C=Cc1c(C)c2cc3nc(c4c5[nH]c(cc6nc(cc1[nH]2)C(C)=C6CC)c(C)c5C(=O)C4)[C@@H](CCC(=O)O)[C@@H]3C [Pyropheophorbide, pyropheophorbide] | 58 | 56 | 55 | 61 | 67 | 65 | 73 | 74 | 72 | 94 | 92 | 93 | –
5 | chlorin e6 iron (III) [reference compound] | – | – | – | – | – | – | – | – | – | – | – | – | Germination rate % (corn seeds; [9]): 46%; Germination rate % (soybean seeds [1]; comparison of the monomers, soy bean seeds, 0.02 ppm): 60%; Germination rate % (rice seeds; [9]): 58%; Germination rate % (wheat seeds; [9]): 92%
6 | chlorin f | 55 | 66 | 58 | 66 | 54 | 62 | 76 | 72 | 66 | 94 | 88 | 92 | Germination rate % (soybean seeds [1]; soybean seeds, 2 ppm sample solution, listed as chlorin f): better germination effects than the positive control; Germination rate % (wheat seeds; 0.02 ppm sample solution, listed as chlorin f): best germination effect
7 | iron chlorin e6 [reference compound] | 53 | 57 | 64 | 60 | 66 | 56 | 78 | 76 | 74 | 90 | 88 | 86 | Germination rate % (rice seeds; 0.02 ppm sample solution, listed as iron chlorin e6): best germination effect; Germination rate % (rice seeds; 2 ppm sample solution, listed as iron chlorin e6): best germination effect; Germination rate % (soybean seeds [2]): most ideal germination effect
8 | purpurin-7 | 56 | 57 | 53 | – | – | – | – | – | – | – | – | – | –
